Molecular target: T1, type-1 15-PGDH (Homo sapiens, UniProt P15428)
T1 construct: made in house
T1 sequence (P15428 1-266): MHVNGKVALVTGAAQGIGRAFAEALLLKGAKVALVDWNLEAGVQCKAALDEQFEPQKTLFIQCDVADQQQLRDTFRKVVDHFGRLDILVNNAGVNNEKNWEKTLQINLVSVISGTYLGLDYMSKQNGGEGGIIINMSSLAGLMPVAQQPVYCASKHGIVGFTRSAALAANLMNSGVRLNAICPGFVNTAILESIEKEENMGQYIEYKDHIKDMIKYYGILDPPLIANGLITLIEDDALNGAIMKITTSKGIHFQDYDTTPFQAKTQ
Assay: Test on type-1 15-PGDH (spectrophotometric, 340 nm, PGE2 and β-NAD as substrates)
Type: biochemical
Settings: 37° C.; for IC50: pH 7.4 Tris buffer, 50 μM Prostaglandin E2, 1.5 mM β-NAD
Method: The enzyme 15-PGDH is obtained as described in patent application FR 02/05067 filed in the name of L'Oréal, as a suspension in a medium adjusted to a concentration of 0.3 mg/mL and then blocked at −80° C. For the purposes of the test, this suspension is thawed and stored in ice.
In parallel, a 100 mM, pH 7.4 Tris buffer containing 0.1 mM of dithiothreitol (D5545, Sigma-Aldrich, L'isle D'Abeau Chesne, BP 701, 38297, Saint Quentin Fallavier), 1.5 mM of β-NAD (N6522, Sigma-Aldrich, L'isle D'Abeau Chesne, BP 701, 38297, Saint Quentin Fallavier), and 50 μM of Prostaglandin E2 (P4172, Sigma-Aldrich, L'isle D'Abeau Chesne, BP 701, 38297, Saint Quentin Fallavier) is prepared.
0.965 ml of this buffer (brought to 37° C. beforehand) is introduced into the cuvette of a spectrophotometer (Perkin-Elmer, Lambda 2) thermostatically maintained at 37° C., the measuring wavelength of which is set at 340 nm. 0.035 mL of enzymatic suspension at 37° C. is introduced into the cuvette concomitantly with the recording (corresponding to an increase in the optical density at 340 nm). The maximum reaction rate is recorded.

IC50 [nM]	inhibition at 100 µM (at 100 μM of compound, pH 7.4, read-out: % inhibition of the enzymatic activity of 15-PGDH) [%]	SMILES
1550	–	O=C1NC(=O)/C(=C/c2ccccc2Oc2ccc(Br)cc2F)S1 [Compound 10]
200	–	CC(C)(C)c1ccc(Oc2cccc(/C=C3\SC(=O)NC3=O)c2)cc1 [Compound 16]
–	48	O=C1NC(=O)/C(=C/c2ccccc2Oc2ccc(F)cc2)S1 [Compound 6]

Source: patent US20070059265A1, “Benzylidene-1,3-thiazolidine-2,4-dione compounds for stimulating or inducing the growth and/or for reducing the loss and/or for increasing the density of keratin fibers” (L'OREAL, priority 2005, published 2007)
